Series [1] is described as follows: Octanol-PBS partition coefficient, log D at […] at pH 7.4. The series is classed as physicochemical.
A short description of series [2]: Membrane permeability at […] at pH 6.5 to 7.4 after 4 hrs by PAMPA. It counts as ADME. As to conditions: read-out: permeability. A general note: The PAMPA barrier holds no transporters, so it reflects passive diffusion.
A short description of series [3]: Intrinsic clearance in rat liver microsomes after 10 to 45 mins by LCMS/MS analysis. It counts as ADME, Microsome. (Liver microsomes are a subcellular fraction often used to study metabolism.)
The nature of series [4]: Intrinsic clearance in human liver microsomes after 10 to 45 mins by LCMS/MS analysis. It counts as ADME, Microsome.

SMILES strings stand for the structures.

What is called logD is lipophilicity at a set pH, counting ionised and neutral species. Broadly, the microsomal CLint is the capacity of the preparation to metabolise the compound, expressed as a volume cleared per time.

In series [1], `CC1(CC(=O)NCCNc2ccnc3cc(Cl)ccc23)CC2(CCCCC2)OO1` (stereo not given) returned a logD of 3.4. Also, the Papp at 4 h in series [2] is 66 ×10⁻⁶ cm/s. Further, the microsomal CLint is above 119 µL/min/mg in series [3] and above 72 µL/min/mg in series [4].
For the compound `CC1(CC(=O)NCc2ccccc2Sc2ccccc2CO)CC2(CCCCC2)OO1` (stereo not given), in series [1], the logD is 4.3. Moreover, the Papp at 4 h in series [2] was found to be 77 ×10⁻⁶ cm/s.
In series [1], `COc1cccc(CNC(=O)CC2(C)CC3(CCCCC3)OO2)c1` (stereo not given) displayed a logD of 3.1. The Papp at 4 h in series [2] stood at 65 ×10⁻⁶ cm/s.
In the case of `CC1(CC(=O)NCc2ccc(Br)cc2F)CC2(CCCCC2)OO1` (stereo not given), the logD in series [1] came out at 4.1.
The compound `CC1(CC(=O)NCc2ccc(Oc3cc(C(F)(F)F)cc(C(F)(F)F)c3)cc2)CC2(CCCCC2)OO1` (stereo not given) had a logD in series [1] of 3.2.
`CC1(CC(=O)NCc2ccc(OC(F)(F)F)cc2)CC2(CCCCC2)OO1` (stereo not given): the logD in series [1] amounted to 3.2.
In series [1], `CC1(CC(=O)NCc2cccc(C(F)(F)F)c2)CC2(CCCCC2)OO1` (stereo not given) had a logD of 4.
Compound `CC(C)(C)OC(=O)Nc1cccc(CCNC(=O)CC2(C)CC3(CCCCC3)OO2)c1` (stereo not given) had a logD in series [1] of 3.
The compound `CC1(CC(=O)NCc2cccc(I)c2)CC2(CCCCC2)OO1` (stereo not given) displayed a pH-dependent lipophilicity (logD) in series [1] of 3.5.
In series [1], `CC1(CC(=O)NCc2ccccc2N)CC2(CCCCC2)OO1` (stereo not given) returned a logD of 2.5. Moreover, in series [2], the Papp at 4 h was determined as 37 ×10⁻⁶ cm/s.
The corresponding values for `CC1(CC(=O)NCc2ccc3c(c2)OCC=CO3)CC2(CCCCC2)OO1` (stereo not given) are 3.1 and 55 ×10⁻⁶ cm/s.
Regarding `CC1(CC(=O)NCc2ccccc2OC(F)(F)F)CC2(CCCCC2)OO1` (stereo not given), the log distribution coefficient (logD) in series [1] stood at 3.3.
`CC1(CC(=O)NCc2ccc(Oc3ccc(F)cc3)cc2)CC2(CCCCC2)OO1` (stereo not given): in series [1], the logD is above 3.5.
Consider `CC1(CC(=O)NCc2ccccn2)CC2(CCCCC2)OO1` (stereo not given), for which the logD in series [1] worked out at 2.3. Moreover, in series [2], the Papp at 4 h turned out to be 33 ×10⁻⁶ cm/s.
The compound `CC1(CC(=O)NCc2ccc([N+](=O)[O-])cc2)CC2(CCCCC2)OO1` (stereo not given) came in with a logD in series [1] of 3.4. In series [2], the Papp at 4 h worked out at 49 ×10⁻⁶ cm/s.
Turning to `CC1(CC(=O)NCc2ccc(S(N)(=O)=O)cc2)CC2(CCCCC2)OO1` (stereo not given), in series [1], the logD is 1.4.
For `CC1(CC(=O)NCc2cccc(Cl)c2Cl)CC2(CCCCC2)OO1` (stereo not given), the logD in series [1] is 3.4.
With `CC1(CC(=O)NCc2cccc(-c3ccccc3)c2)CC2(CCCCC2)OO1` (stereo not given), in series [1], the logD turned out to be 3.8.
Take `CC1(CC(=O)NCc2ccc(-c3ccc(F)cc3)cc2)CC2(CCCCC2)OO1` (stereo not given): in series [1], the log distribution coefficient (logD) came out at 4.8.
`CC1(CC(=O)NCc2cccc(Oc3ccc(Cl)cc3)c2)CC2(CCCCC2)OO1` (stereo not given): the logD in series [1] was 3.2.
As for `CC1(CC(=O)NCc2cccc(Br)c2)CC2(CCCCC2)OO1` (stereo not given), in series [1], the logD worked out at 3.3.
`CC1(CC(=O)NCc2ccc(C(C)(C)C)cc2)CC2(CCCCC2)OO1` (stereo not given) returned a logD in series [1] of 3.5.
`CC1(CC(=O)NCc2ccc(Cl)cc2Cl)CC2(CCCCC2)OO1` (stereo not given) showed a logD in series [1] above 3.5.
Same read-out and setting: the value for `CC1(CC(=O)NCc2ccc(-c3cc(Cl)cc(Cl)c3)cc2)CC2(CCCCC2)OO1` (stereo not given) was above 3.5; that for `CC1(CC(=O)NCc2ccc(C(=O)O)cc2)CC2(CCCCC2)OO1` (stereo not given) was 0.3; that for `CC1(CC(=O)NCc2cccc(Cl)c2)CC2(CCCCC2)OO1` (stereo not given) was 3.7.
For the compound `COC(=O)c1ccc(CNC(=O)CC2(C)CC3(CCCCC3)OO2)cc1` (stereo not given), in series [1], the logD was determined as 3.4. In addition, the Papp at 4 h in series [2] stood at 57 ×10⁻⁶ cm/s.
Taken in the same sequence, the figures for `CC1(CC(=O)NCc2ccccc2N2CCCCC2)CC2(CCCCC2)OO1` (stereo not given) were above 3.5 and 62 ×10⁻⁶ cm/s.
`CC1(CC(=O)NCc2ccc(N3CCOCC3)cc2)CC2(CCCCC2)OO1` (stereo not given): the logD in series [1] was determined as 2.7.
In turn, `CN(C)c1ccc(CNC(=O)CC2(C)CC3(CCCCC3)OO2)cc1` (stereo not given) showed a logD in series [1] of 3.1. For the same compound, the Papp at 4 h in series [2] stood at 90 ×10⁻⁶ cm/s.
Consider `CSc1ccc(CNC(=O)CC2(C)CC3(CCCCC3)OO2)cc1` (stereo not given), for which the pH-dependent lipophilicity (logD) in series [1] was determined as 3.7. The Papp at 4 h in series [2] amounted to 97 ×10⁻⁶ cm/s.
`CCOc1ccccc1CNC(=O)CC1(C)CC2(CCCCC2)OO1` (stereo not given) returned a logD in series [1] of 3.1. Moreover, the Papp at 4 h in series [2] amounted to 74 ×10⁻⁶ cm/s.
On to `CC1(CC(=O)NCc2ccncc2)CC2(CCCCC2)OO1` (stereo not given), for which the logD in series [1] amounted to 2.1. The Papp at 4 h in series [2] amounted to 18 ×10⁻⁶ cm/s.
`COc1cc(CNC(=O)CC2(C)CC3(CCCCC3)OO2)cc(OC)c1` (stereo not given) yielded a logD in series [1] of 3.3. Moreover, in series [2], the Papp at 4 h stood at 55 ×10⁻⁶ cm/s.
For the compound `COc1cc(CNC(=O)CC2(C)CC3(CCCCC3)OO2)cc(OC)c1OC` (stereo not given), the logD in series [1] was found to be 2.3. For the same compound, the Papp at 4 h in series [2] amounted to 54 ×10⁻⁶ cm/s.
Taken in the same sequence, the figures for `CC1(CC(=O)NCc2ccc(-n3cccc3)cc2)CC2(CCCCC2)OO1` (stereo not given) were 4.3 and 70 ×10⁻⁶ cm/s.
Consider `CC1(CC(=O)NCc2ccc(-c3cccs3)cc2)CC2(CCCCC2)OO1` (stereo not given), for which the log distribution coefficient (logD) in series [1] was 3.7.
Compound `CC1(CC(=O)NCc2ccc(OC(F)F)cc2)CC2(CCCCC2)OO1` (stereo not given) gave a log distribution coefficient (logD) in series [1] of 3.1.
`Cc1cc(Cl)ccc1CNC(=O)CC1(C)CC2(CCCCC2)OO1` (stereo not given) registered a log distribution coefficient (logD) in series [1] of 4.2.
`CC1(CC(=O)NCc2ccc3c(c2)OCC3)CC2(CCCCC2)OO1` (stereo not given) registered a logD in series [1] of 2.8.
Turning to `CC1(CC(=O)NCc2ccc3c(c2)OCCO3)CC2(CCCCC2)OO1` (stereo not given), the logD in series [1] was 2.7. Further, in series [2], the Papp at 4 h was found to be 56 ×10⁻⁶ cm/s.
